Results published in DBAASP.
Values after ≈ are worked out from the molar mass of the structure shown. Values joined by “and” are separate entries in the source; they are usually repeats but may differ in a detail not shown here. Identical values can stand only once.

Key:
Assay in all cases: ≥ marks a high value that may be exact or a test limit, other limits are often not marked, values filed in µg/mL are converted to µM
[1] = test system: Clavibacter michiganensis subsp. michiganensis KACC 20122
Vibrio cholerae = test system: Vibrio cholerae
Escherichia coli MG1655 = test system: Escherichia coli MG1655
[2] = test system: Enterococcus faecalis ATCC 29212
[3] = test system: Bacillus subtilis MTCC 14416
[4] = test system: Staphylococcus aureus ATCC 43300
[5] = test system: Staphylococcus aureus MTCC 9542
[6] = test system: Escherichia coli ATCC 11303
[7] = test system: Mycobacterium tuberculosis
[8] = test system: Escherichia coli ATCC 25922
[9] = test system: Klebsiella pneumoniae ST258
[10] = test system: Mycobacterium tuberculosis H37Rv
[11] = test system: Pseudomonas aeruginosa ATCC 27853
[12] = test system: Staphylococcus aureus ATCC 25923
[13] = test system: Bacillus subtilis KCTC 1918
[14] = test system: Trichosporon beigelii KCTC 7707
[15] = test system: Listeria monocytogenes KCTC 3710
[16] = test system: Staphylococcus aureus KCTC 1621
[17] = test system: Escherichia coli KCTC 1682
[18] = test system: Salmonella typhimurium KCTC 1926
[19] = test system: Pseudomonas aeruginosa KCTC 1637
[20] = test system: Staphylococcus aureus CCRC 12652
Pseudomonas aeruginosa = test system: Pseudomonas aeruginosa
[21] = test system: Streptococcus alactolyticus
Escherichia coli BL21 = test system: Escherichia coli BL21
Escherichia coli JM109 = test system: Escherichia coli JM109
Citrobacter koseri = test system: Citrobacter koseri
[22] = test system: Salmonella typhimurium CCRC 12947
[23] = test system: Vibrio parahaemolyticus CCRC 10806
Staphylococcus xylosus = test system: Staphylococcus xylosus
[24] = test system: Staphylococcus aureus CCRC 15211
Salmonella enterica = test system: Salmonella enterica
[25] = test system: Klebsiella pneumoniae CCRC 10694
[26] = test system: Staphylococcus aureus NCTC 10788
[27] = test system: Escherichia coli NCTC 10418
[28] = test system: Pseudomonas aeruginosa CIP A22
[29] = test system: Escherichia coli ATCC 54127

SMILES: NCCCC[C@H](N)C(=O)N[C@@H](Cc1c[nH]c2ccccc12)C(=O)N[C@@H](Cc1c[nH]c2ccccc12)C(=O)N[C@@H](Cc1c[nH]c2ccccc12)C(=O)N[C@@H](CCCN=C(N)N)C(=O)N[C@@H](Cc1c[nH]c2ccccc12)C(N)=O [KWWWRW]
- MIC [1]: 12.5 µM and 25 µM and 18.8 µM

SMILES: CC[C@H](C)[C@H](NC(=O)[C@H](CCCCN)NC(=O)[C@@H]1CCCN1C(=O)[C@H](CC(C)C)NC(=O)[C@H](Cc1ccccc1)NC(=O)[C@H](CC(N)=O)NC(=O)[C@H](C)NC(=O)[C@H](C)NC(=O)[C@H](CC(C)C)NC(=O)CNC(=O)[C@H](C)NC(=O)[C@H](CC(C)C)NC(=O)[C@H](CC(C)C)NC(=O)[C@@H]1CCCN1C(=O)[C@@H](N)CC(C)C)C(=O)N[C@@H](Cc1ccccc1)C(=O)N[C@@H](CS)C(=O)N[C@@H](CCCCN)C(=O)N[C@H](C(=O)N[C@H](C(=O)N[C@@H](CCCN=C(N)N)C(=O)N[C@@H](CCCCN)C(N)=O)[C@@H](C)O)[C@@H](C)CC [LPLLAGLAANFLPKIFCKITRK]
- MIC (Vibrio cholerae): 5.15 µM (≈ 12.5 µg/mL)
- MIC (Escherichia coli MG1655): 2.57 µM (≈ 6.25 µg/mL)
- MIC [2]: 41.2 µM (≈ 100 µg/mL)
- MIC [3]: 5.15 µM (≈ 12.5 µg/mL)
- MIC [4]: 20.6 µM (≈ 50 µg/mL)
- MIC [5]: 2.57 µM (≈ 6.25 µg/mL)

SMILES: CC(C)C[C@H](NC(=O)CNC(=O)CN)C(=O)N[C@@H](CCCCN)C(=O)N[C@@H](CCCCN)C(=O)N[C@@H](CC(C)C)C(=O)NCC(=O)N[C@@H](CCCCN)C(=O)N[C@@H](CCCCN)C(=O)N[C@@H](CC(C)C)C(=O)N[C@@H](CCC(=O)O)C(=O)NCC(=O)N[C@@H](C)C(=O)NCC(=O)N[C@@H](CCCCN)C(=O)N[C@@H](CCCN=C(N)N)C(=O)N[C@H](C(=O)N[C@@H](Cc1ccccc1)C(=O)N[C@@H](CC(N)=O)C(=O)N[C@@H](C)C(=O)N[C@@H](C)C(=O)N[C@@H](CCC(=O)O)C(=O)N[C@@H](CCCCN)C(=O)N[C@@H](C)C(=O)N[C@@H](CC(C)C)C(=O)N1CCC[C@H]1C(=O)O)C(C)C [GGLKKLGKKLEGAGKRVFNAAEKALP]
- MIC [6]: 11 µM (≈ 29.6 µg/mL)

SMILES: CC[C@H](C)[C@H](NC(=O)[C@H](CC(C)C)NC(=O)[C@H](CCCCN)NC(=O)[C@H](CC(C)C)NC(=O)[C@H](C)NC(=O)CNC(=O)[C@H](CCCCN)NC(=O)[C@H](C)NC(=O)[C@H](CC(C)C)NC(=O)[C@H](C)NC(=O)CNC(=O)[C@H](Cc1c[nH]c2ccccc12)NC(=O)[C@@H](N)Cc1ccccc1)C(=O)NCC(=O)N[C@@H](CO)C(=O)N[C@@H](CC(C)C)C(=O)N[C@@H](Cc1ccccc1)C(=O)N[C@@H](CO)C(=O)N[C@@H](CO)C(=O)N[C@@H](Cc1ccccc1)C(=O)N[C@@H](CO)C(=O)N[C@@H](CCCCN)C(=O)N[C@@H](CCCCN)C(=O)N[C@@H](CC(=O)O)C(=O)O [FWGALAKGALKLIGSLFSSFSKKD]
- MIC [7]: 18.7 µM (≈ 48.1 µg/mL)
- MIC [8]: 12.5 µM (≈ 32.2 µg/mL)
- MIC [9]: 19.4 µM (≈ 50 µg/mL)
- MIC [10]: 18.7 µM (≈ 48.1 µg/mL)
- MIC [11]: > 19.4 µM
- MIC [12]: 12.5 µM (≈ 32.2 µg/mL)

SMILES: CC[C@H](C)[C@H](NC(=O)[C@H](CCCCN)NC(=O)[C@H](CCCCN)NC(=O)[C@H](Cc1ccccc1)NC(=O)[C@H](CC(C)C)NC(=O)[C@H](CCCCN)NC(=O)[C@H](CCCCN)NC(=O)[C@H](CC(C)C)NC(=O)[C@H](CCCCN)NC(=O)[C@H](CCCCN)NC(=O)[C@@H](N)Cc1ccccc1)C(=O)N[C@@H](CC(C)C)C(=O)N[C@@H](CCCCN)C(=O)N[C@@H](CC(C)C)C(=O)N[C@@H](CCCCN)C(N)=O [FKKLKKLFKKILKLK]
- MIC [13]: 8 µM and 16 µM
- MIC [14]: 1 µM and 2 µM
- MIC [15]: 4 µM and 8 µM
- MIC [16]: 8 µM and 16 µM
- MIC [17]: 8 µM (≈ 15.2 µg/mL)
- MIC [18]: 1 µM and 2 µM
- MIC [19]: 2 µM (≈ 3.81 µg/mL)

SMILES: CC[C@H](C)[C@H](N)C(=O)N[C@@H](CCCCN)C(=O)N[C@@H](Cc1c[nH]c2ccccc12)C(=O)N[C@@H](CCCCN)C(=O)N[C@@H](C)C(=O)N[C@H](C(=O)N[C@@H](CC(C)C)C(=O)N[C@@H](CC(=O)O)C(=O)N[C@@H](C)C(=O)N[C@H](C(=O)N[C@@H](CCCCN)C(=O)N[C@@H](CCCCN)C(=O)N[C@H](C(=O)N[C@H](C(N)=O)[C@@H](C)CC)C(C)C)C(C)C)[C@@H](C)CC [IKWKAILDAVKKVI]
- MIC [20]: 19.7 µM (≈ 32 µg/mL)
- MIC (Pseudomonas aeruginosa): 118 µM (≈ 192 µg/mL)
- MIC [21]: 7.38 µM (≈ 12 µg/mL)
- MIC (Escherichia coli BL21): 4.92 µM (≈ 8 µg/mL)
- MIC (Escherichia coli JM109): 4.92 µM (≈ 8 µg/mL)
- MIC (Citrobacter koseri): 2.46 µM (≈ 4 µg/mL)
- MIC [22]: 19.7 µM (≈ 32 µg/mL)
- MIC [23]: 9.85 µM (≈ 16 µg/mL)
- MIC (Staphylococcus xylosus): 1.23 µM (≈ 2 µg/mL)
- MIC [24]: ≥ 39.4 µM
- MIC (Salmonella enterica): 19.7 µM (≈ 32 µg/mL)
- MIC [25]: 19.7 µM (≈ 32 µg/mL)

SMILES: CC[C@H](C)[C@H](NC(=O)[C@H](CC(=O)O)NC(=O)[C@H](CCCCN)NC(=O)[C@H](Cc1c[nH]c2ccccc12)NC(=O)[C@H](CC(C)C)NC(=O)[C@H](C)N)C(=O)N[C@@H](CC(C)C)C(=O)N[C@@H](CCCCN)C(=O)N[C@@H](CC(N)=O)C(=O)N[C@H](C(=O)NCC(=O)N[C@@H](CCCCN)C(=O)N[C@@H](C)C(=O)N[C@@H](C)C(=O)NCC(=O)N[C@@H](CCCCN)C(=O)N[C@@H](C)C(=O)N[C@H](C(=O)N[C@@H](CC(C)C)C(=O)N[C@@H](CC(N)=O)C(=O)N[C@H](C(=O)N[C@H](C(=O)N[C@H](C(=O)N[C@@H](CC(=O)O)C(=O)N[C@@H](CCSC)C(=O)N[C@H](C(=O)N[C@@H](CC(N)=O)C(=O)N[C@@H](CCC(N)=O)C(N)=O)C(C)C)[C@@H](C)O)C(C)C)[C@@H](C)O)C(C)C)C(C)C [ALWKDILKNVGKAAGKAVLNTVTDMVNQ]
- MIC [26]: 3 µM (≈ 8.99 µg/mL)
- MIC [8]: 5 µM (≈ 15 µg/mL)
- MIC [27]: 5 µM (≈ 15 µg/mL)
- MIC [28]: 4.6 µM (≈ 13.8 µg/mL)
- MIC [29]: 2.3 µM (≈ 6.89 µg/mL)
- MIC [11]: 11.6 µM (≈ 34.8 µg/mL)
- MIC [12]: 3 µM (≈ 8.99 µg/mL)
